In PubChem BioAssay AID687040 (Broad Institute, 2013):
Calls of active or inactive are those of the source.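 How the source made its calls: active means fitted curve hits 40% activity increase at a dose no higher than the top valid tested dose; inconclusive means flat curve at 30 to 70% activity, or poor fit; inactive means the rest.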

tested on: not listed separately; test: miR-122 suppression via Renilla sensor signal rise – cell-based, Huh7-psiCHECK-miR122, luminescence, dry powder, dose response (AID 687040); settings: Huh7 psiCHECK-miR122 Renilla luciferase reporter, 48 h; at 35 µM (top of the series)

In the case of O=S(=O)(Nc1cccc2[nH]ncc12)c1ccc(F)c2ncccc12, the activity increase (miR-122 inhibition) is reported as 6.99% (inactive).

tested on: Huh7 psiCHECK-miR122 Renilla luciferase reporter, 48 h; test: as above; settings: not given

Point of comparison: CCOc1ccc(C)cc1S(=O)(=O)NC1CCCCC1, AC40 0.394 µM. Against it:
- O=S(=O)(c1ccc2c(c1)CCCN2)N1CCC[C@@H]2CCCC[C@H]21 — 18-fold higher, 6.94 µM
- Cc1ccc(NS(=O)(=O)c2cc(C(=O)NCc3ccccn3)ccc2Cl)cc1C — 5.8-fold higher, 2.27 µM
- Cc1cc(S(=O)(=O)NC2CCCCC2)c(C)s1 — 5.2-fold higher, 2.04 µM
- CCOc1ccccc1N1CCN(C(=O)c2cccc(-c3ccc(O)cc3)c2)CC1 — lower, < 0.26 µM
- COc1ccc(C(C)(C)C)cc1S(=O)(=O)NCC1CCCO1 (centres undefined) — within 1.5-fold, 0.456 µM
- Cc1ccc(C(=O)C2Oc3ccccc3C3CC(c4ccc(C)cc4)=NN23)cc1 (centres undefined) — 2.1-fold higher, 0.831 µM
- COc1cc(C)c(C(C)C)cc1S(=O)(=O)n1cnc(C)c1 — 12-fold higher, 4.6 µM
- Cc1ccc(C)c(S(=O)(=O)Nc2ccc(-n3cnnn3)cc2)c1 — within 1.5-fold, 0.271 µM
- CCOc1cc(C)c(S(=O)(=O)NC2CCCCC2)cc1C — 3.1-fold higher, 1.24 µM
- Cc1cccc(NS(=O)(=O)c2cc3c(cc2C)NC(=O)CO3)c1 — 6.7-fold higher, 2.65 µM
- Cc1cc(C)c(C)c(S(=O)(=O)NC2CCCCC2)c1C — within 1.5-fold, 0.507 µM
- O=C(Nc1ccc(N2CCOCC2)c(S(=O)(=O)Nc2cc(Cl)ccc2Cl)c1)c1cccnc1 — 1.9-fold higher, 0.761 µM
- CC1CCCCN1C(=O)c1cc2nc(-c3ccccc3)cc(-c3ccccc3)n2n1 (centres undefined) — 2.3-fold higher, 0.925 µM
- COc1ccc(S(=O)(=O)Nc2ccc(OC(F)F)cc2)c2cccnc12 — 3.6-fold higher, 1.43 µM
- COc1ccc(S(=O)(=O)NCCN2CCOCC2)c2ccccc12 — 4.1-fold higher, 1.6 µM
- Cc1cc(C)c(S(=O)(=O)NC(C)C)c(C)c1-n1cnnn1 — 4.4-fold higher, 1.72 µM
- CCN(CC)C(=O)CN(c1cc2c(cc1OC)oc1ccccc12)S(=O)(=O)c1ccccc1 — 5.8-fold higher, 2.29 µM
- O=C(CN1CCOCC1)Nc1ccc(Br)cc1C(=O)c1ccccc1 — 3.6-fold higher, 1.43 µM
- Cc1cc(C)c(S(=O)(=O)NC2CC3CCC2C3)c(C)c1 (centres undefined) — 2-fold higher, 0.792 µM
- COc1ccc(C)cc1NS(=O)(=O)c1ccc2c(c1)N(C)CCO2 — 6.7-fold higher, 2.65 µM
- S=C(Nc1ccc(Cl)cc1Cl)NC1CCCCC1 — 11-fold higher, 4.18 µM
- Cc1ccc(C)c(S(=O)(=O)Nc2ccc3cn[nH]c3c2)c1 — 3.9-fold higher, 1.54 µM
- CN1C(=O)c2cccc3c(S(=O)(=O)NCCc4ccccc4)ccc1c23 — within 1.5-fold, 0.3 µM
- CCCCNS(=O)(=O)c1ccc2nc(-c3cccnc3)cc(C(=O)NC(C)CC)c2c1 (centres undefined) — within 1.5-fold, 0.274 µM
- Cc1ccc(C(C)C)cc1S(=O)(=O)Nc1cccnc1 — 4.5-fold higher, 1.79 µM
- Nc1c(S(=O)(=O)c2cccs2)c2nc3ccccc3nc2n1Cc1ccccc1 — 3.2-fold higher, 1.25 µM
- COC(=O)c1cc(S(=O)(=O)Nc2cc(OC)cc(OC)c2)cn1C — 8.1-fold higher, 3.19 µM
- Cc1cc(C(C)(C)C)cc(S(=O)(=O)NCCO)c1C — 3.2-fold higher, 1.26 µM
- Cc1cc(Cl)c(Cl)cc1S(=O)(=O)NCCCn1ccnc1 — 4.8-fold higher, 1.89 µM
- Cc1ccc(S(=O)(=O)Nc2ccc3c4c(cccc24)CC3)c(C)c1 — 9.3-fold higher, 3.66 µM
- COc1cccc(N2CCN(C(=O)c3oc4ccccc4c3NC(=O)CCc3cc(OC)no3)CC2)c1 — 6.1-fold higher, 2.39 µM

For O=C(Nc1ccc2ccccc2c1)c1ccc(Cl)cc1Cl, the AC40 was > 35 µM (inactive).
